#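 Assay format: 96-well plates, 48-hour exposure. The concentration for 50% growth inhibition is given as GI50. At the TGI there is no net growth.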
# Columns and labels:
# Test in all cases: DTP human tumour cell line panel, 48 h
# UACC-257 melanoma = test system: UACC-257 melanoma
# K-562 leukemia = test system: K-562 leukemia
# MOLT-4 leukemia = test system: MOLT-4 leukemia
# SK-OV-3 ovarian = test system: SK-OV-3 ovarian
# KM12 colon = test system: KM12 colon
# MDA-N = test system: MDA-N
# MCF7 breast = test system: MCF7 breast
# HCT-15 colon = test system: HCT-15 colon
# U251 CNS = test system: U251 CNS
# OVCAR-5 ovarian = test system: OVCAR-5 ovarian
# SR leukemia = test system: SR leukemia
# SF-295 CNS = test system: SF-295 CNS
# RXF 393 renal = test system: RXF 393 renal
# NCI-H460 lung = test system: NCI-H460 lung
# HCC-2998 colon = test system: HCC-2998 colon
# SF-539 CNS = test system: SF-539 CNS
# T-47D breast = test system: T-47D breast
# HL-60(TB) leukemia = test system: HL-60(TB) leukemia
SMILES,TGI (UACC-257 melanoma) [µM],TGI (K-562 leukemia) [µM],TGI (MOLT-4 leukemia) [µM],TGI (SK-OV-3 ovarian) [µM],TGI (KM12 colon) [µM],TGI (MDA-N) [µM],TGI (MCF7 breast) [µM],TGI (HCT-15 colon) [µM],TGI (U251 CNS) [µM],TGI (OVCAR-5 ovarian) [µM],TGI (SR leukemia) [µM],TGI (SF-295 CNS) [µM],TGI (RXF 393 renal) [µM],TGI (NCI-H460 lung) [µM],TGI (HCC-2998 colon) [µM],TGI (SF-539 CNS) [µM],TGI (T-47D breast) [µM],TGI (HL-60(TB) leukemia) [µM],GI50 (RXF 393 renal) [µM],GI50 (SF-295 CNS) [µM]
CCOC(=O)[C@@H]1OC(c2ccccc2)O[C@H]1C(=O)OCC,> 100,> 100,> 100,> 100,> 100,> 100,> 100,> 100,> 100,> 100,> 100,> 100,,,,,,,,
COc1cc(OC)c2ssc3c(OC)cc(OC)c4ssc1c2-c43,> 100,> 100,> 100,> 100,> 100,,,> 100,> 100,> 100,,> 100,> 100,> 100,> 100,> 100,,,,
CC(C)(C)OC(=O)[C@@H]1CCC(=S)N1Cc1ccccc1,> 100,> 100,> 100,> 100,> 100,> 100,> 100,> 100,> 100,> 100,> 100,> 100,> 100,> 100,> 100,> 100,,,,
C=CC(CBr)CCC(Br)C(C)(C)Br (stereo not given),> 10,> 10,> 10,> 10,> 10,> 10,> 10,> 10,> 10,> 10,,> 10,> 10,> 10,> 10,> 10,> 10,,,
O=C(/C=C/c1ccc(O)c(O)c1)OC1C[C@@](O)(C(=O)O)C[C@@H](O)[C@H]1OC(=O)/C=C/c1ccc(O)c(O)c1 (stereo not given in full),> 100,> 100,> 100,> 100,> 100,,,> 100,> 100,> 100,> 100,> 100,> 100,> 100,> 100,> 100,,> 100,,
COc1c(C)c2c(c3c1c(=O)c1ccccc1n3C)C=CC(C)(C)O2,76.6,66,67.8,43.1,60.9,,,> 100,53.8,87.6,58.6,45.8,> 100,62,95.6,44.9,,30.2,,
O=c1cc(-c2ccccc2)oc2cc(OCC(O)COc3ccc4c(=O)cc(-c5ccccc5)oc4c3)ccc12,> 100,> 100,> 100,76.7,> 100,,,> 100,63.1,> 100,,> 100,,> 100,,57,,> 100,,
CC(/C=C/C(=O)c1sc(-n2nc(-c3ccccc3)cc2-c2ccccc2)nc1C)=C\c1ccccc1,> 100,> 100,> 100,> 100,> 100,,,57.6,> 100,,> 100,> 100,> 100,> 100,> 100,> 100,,> 100,> 100,> 100
CCCCOCn1c(=O)[nH]c(=O)c2ccccc21,> 100,> 100,> 100,> 100,> 100,> 100,> 100,> 100,> 100,> 100,> 100,> 100,> 100,> 100,,> 100,,> 100,,
CCOC(=O)C1(C#N)C(c2ccccc2)CC(O)(c2ccc([N+](=O)[O-])cc2)C(C(=O)c2ccc([N+](=O)[O-])cc2)C1c1ccccc1 (stereo not given),> 100,> 100,> 100,> 100,> 100,,,> 100,> 100,> 100,> 100,> 100,42.6,> 100,> 100,,,> 100,,
CCOC(=O)C[C@@H](C)[C@]1(C(=O)OC)CCCC1=O,> 100,> 100,> 100,> 100,> 100,,,> 100,> 100,> 100,65.6,> 100,> 100,> 100,> 100,> 100,,> 100,,
Cc1[nH]n(C2=NCCN2)c(=O)c1C,> 100,> 100,> 100,> 100,> 100,,> 100,> 100,> 100,> 100,> 100,> 100,> 100,> 100,,> 100,> 100,> 100,,
COc1cc(C2SCC(=O)N2Cc2ccccc2)cc(OC)c1OC (stereo not given),> 100,> 100,> 100,> 100,> 100,> 100,> 100,> 100,> 100,> 100,> 100,> 100,,> 100,> 100,> 100,,> 100,,
Cc1cc2nc3c(C#N)c(-c4ccccc4)/c(=C\Nc4ccc(Cl)cc4)c(=O)n3c2cc1C,> 100,,,> 100,> 100,> 100,> 100,> 100,> 100,> 100,,> 100,> 100,> 100,> 100,> 100,> 100,,,
Cc1nnc2sc(Cl)nn12,,72.9,29.3,31,28.6,48.9,29.5,45.6,31.4,44.5,,36.2,,37.4,31.6,47.1,73.4,,,
